Patent publication US20220151935A1, “USE OF AMINO ACID BASED NUTRIENTS AND PHARMACEUTICAL COMPOSITION CONTAINING THE SAME” (priority 2018, published 2022)
Where two headings read alike, the source gives them in different places. Marks after values point to notes of the source that are not given here. Peptide text beside a SMILES is read from it.

Columns and labels:
[1] = pH of the drug composition; format: physicochemical; conditions: aqueous solution
[2] = tested on: breast cancer 4T1 cells; test: Tumor weight and tumor inhibition in BALB/c mice bearing breast cancer 4T1 cells; conditions: for Intratumoral injection Tumor inhibition rate / Intratumoral injection Tumor weight: Table 10, avg tumor volume 336 mm^3, 150 μl/mouse every 3 days x3, 5th day after last dose;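 for all read-outs here: subcutaneous grafts in the right axilla, tumors excised and weighed after euthanasia, inhibition rate derived from group mean tumor weight versus the negative control group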
Method: In the following examples, unless otherwise specified, animal tests of subcutaneous transplantation tumors were performed in accordance with test guidelines issued by a drug administration authority. […] The subcutaneous transplantation was carried out according to a conventional method for subcutaneous inoculation of tumor cells. […] Items to be observed, measured and analyzed in the experiments included general status, body weight, food intake, tumor volume, tumor weight, thymus weight, spleen weight, and the like.
(§3) The tumor growth inhibition rate (abbreviated as tumor inhibition rate in the present invention) is calculated through the following equation:
(§4) wherein TW is an average tumor weight of a study group; CW is an average tumor weight of a negative control group.
The effects of the co-use of drugs (including efficacy and safety) can theoretically be based on the judgment of q:
q=actual combined effect/theoretical expected effect of simple addition.
When q=1, the actual combined effect meets the theoretical expectation, showing an additive effect; when q<1, the actual combined effect is weaker than the theoretical expectation, showing an antagonistic effect; and when q>1, the actual combined effect exceeds the theoretical expectation, showing a synergic effect. Unless otherwise specified, single-use efficacy of A or B (denoted as EA and EB respectively) and the actual combined efficacy of A/B (denoted as EA+B) are both tumor inhibition rates.
In one experiment, the test animal was a BALB/c mouse, the modeling cells were breast cancer 4T1 cells, and the transplantation tumor was modeled at 1×10^6 cells/mouse under the skin of the animal's right axilla. […] The experimental groups were divided into 1 negative control group (group 0) and 13 study groups (groups 1-13). They were all injected intratumorally. […] Each group was administered once every 3 days for a total of 3 times, each time at an injection dose of 150 μl//mouse. During the administration, general state of the animals and the degree of necrosis of normal tissues around the tumor after the administration were observed. On the 5th day after the administration was ended, the animals were euthanized, and the tumor weight was measured after anatomy to the animals. The tumor inhibition rate was calculated from the negative control group of each administration mode.
In another experiment, the test animal was a BALB/c mouse, the modeling cells were breast cancer 4T1 cells, and the transplantation tumor was modeled at 1×10^6 cells/mouse under the skin of the animal's right axilla. […] Each group was administered by intratumoral injection once every 3 days for a total of 3 times, each time at an injection dose of 150 μl/mouse. On the 5th day after the administration was ended, the animals were euthanized, and the tumor weight was measured after anatomy to the animals. The tumor inhibition rate was calculated from the negative control group.
In another experiment, the test animal was BALB/c mice, the modeling cells were breast cancer 4T1 cells, and the transplantation tumor was modeled at 1×10^6 cells/mouse under the skin of the animal's right axilla. […] Each group was administered by intratumoral injection once every 3 days for a total of 3 times, each time at an injection dose of 150 μl/mouse. On the 5th day after the administration was ended, the animals were euthanized, and the tumor weight was measured after anatomy to the animals. The tumor inhibition rate was calculated from the negative control group.
In another experiment, the test animal was a BALB/c mouse, the modeling cells were breast cancer 4T1 cells, and the transplantation tumor under the skin of the animal's right axilla was modeled at 1×10^6 cells/mouse.

[3] = tested on: human liver cancer cells (HepG2); test: Tumor weight and tumor inhibition in nude mice bearing HepG2; format: in vivo; conditions: for Intratumoral injection Tumor inhibition rate / Intratumoral injection Tumor weight / Tumor inhibition rate of intraperitoneal injection: 5th day after last dose
Method: (§1) One of the core characteristics of tumors is heterogeneity. […] The corresponding negative control was normal saline.
(§2) They were injected intraperitoneally and intratumorally.
The negative control group was given normal saline. The compositions of the study drug are as shown in the table below: 4 types and concentrations of amino acid based nutrient single drugs (X % amino acid based nutrients), 18 types and concentrations of ineffective absorption drugs (Y % ineffective absorption drugs), 24 compositions comprising various types and concentrations of amino acid based nutrients and ineffectively absorption drugs (X % amino acid based nutrients/Y % ineffectively absorption drugs).
The negative control was normal saline. The compositions of 16 study drugs, as shown in the table below, comprise: a 5-fluorouracil single drug of 4 varying concentrations (X % 5-fluorouracil), and an amino acid based nutrient with 5 varying concentrations (Y % amino acid based nutrient), 7 compositions consisting of 5-fluorouracil of varying concentrations and an amino acid based nutrient of varying concentrations (X % 5-fluorouracil/Y % amino acid based nutrient). […] The dose at each time was: 5-fluorouracil 50 mg/kg, glutathione ≤1 g/kg, and an injection volume was ≤150 μl/mouse.
The negative control was normal saline, the positive control was 1% 5-fluorouracil, and the study drug was 1% methylene blue/10% amino acid based nutrient composition (the type of the amino acid based nutrient is variable). The amino acid based nutrients in the compositions used in study groups 1-13 were: arginine, glycine, cysteine hydrochloride, valine, threonine, proline, histidine hydrochloride, phenylalanine, lysine, leucine, alanine, glutathione, serine, and the study drug used in the study group 14 was 1% methylene blue/5% arginine/5% glycine.

[4] = tested on: human lung cancer cells (A549); test: Tumor inhibition in nude mice bearing human lung cancer cells (A549); conditions: Example 2; intratumoral 100 μl/mouse every 3 days x3; next day; avg tumor volume 83 mm^3
Method: as §3, §4
(§5) In the following experiments, the nude mice bearing human tumor cells and successfully modeled were randomly divided into 1 negative control group and 4 study groups (groups A, B, C, and D). The corresponding negative control was normal saline. […] Each group was injected intratumorally, once every 3 days, for a total of 3 times, each time with 100 μl/mouse. On the next day after the administration of drugs was ended, the animals were euthanized, the tumor weight was measured after anatomy, and the tumor inhibition rate was calculated from the respective negative control group.
In this research experiment, successfully modeled nude mice bearing human lung cancer cells (A549) (with an average tumor volume of 83 mm^3) were randomly divided into a negative control group and 4 study groups (groups A, B, C, and D).

[5] = tested on: human nasopharynx cancer cells (CNE1); test: Tumor inhibition in nude mice bearing human nasopharynx cancer cells (CNE1); conditions: Example 2; intratumoral 100 μl/mouse every 3 days x3; next day; avg tumor volume 78 mm^3
Method: as §3, §4, §5
In this research experiment, successfully modeled nude mice bearing human nasopharynx cancer cells (CNE1) (with an average tumor volume of 78 mm^3) were randomly divided into a negative control group and 4 study groups (groups A, B, C, and D).

[6] = tested on: human ovary cancer cells (PA1); test: Tumor inhibition in nude mice bearing human ovary cancer cells (PA1); conditions: Example 2; intratumoral 100 μl/mouse every 3 days x3; next day; avg tumor volume 104 mm^3
Method: as §3, §4
(§6) In the following experiments, the nude mice bearing human tumor cells and successfully modeled were randomly divided into 1 negative control group and 4 study groups (groups A, B, C, and D). The corresponding negative control was normal saline. The four study drugs were 20% arginine, 3% glutamic hydrochloride, 10% alanyl-glutamine, and 10% glutathione. Each group was injected intratumorally, once every 3 days, for a total of 3 times, each time with 100 μl/mouse. On the next day after the administration of drugs was ended, the animals were euthanized, the tumor weight was measured after anatomy, and the tumor inhibition rate was calculated from the respective negative control group.
(§7) In this series of experiments, successfully modeled nude mice bearing human cancer cells were randomly divided into 1 negative control group and 5 study groups (groups A, B, C, D and E). […] Each group was injected intratumorally, once every 3 days, for a total of 3 times, each time with 150 μl/mouse. On the next day after the administration was ended, the animals were euthanized, the tumor weight was measured after anatomy, and the tumor inhibition rate was calculated from the respective negative control group.
(§8) In this series of experiments, successfully modeled nude mice bearing human cancer cells were randomly divided into 1 negative control group and 6 study groups (groups A, B, C, D, E and F). […] Each group was injected intratumorally, once every 3 days, for a total of 3 times, each time with 100 μl/mouse. On the next day after the administration was ended, the animals were euthanized, the tumor weight was measured after anatomy, and the tumor inhibition rate was calculated from the respective negative control group.
(§9) In this series of experiments, successfully modeled nude mice bearing human cancer cells were randomly divided into 1 negative control group and 3 study groups. […] Each group was injected intratumorally, once every 3 days, for a total of 3 times, each time with 150 μl/mouse.

[7] = tested on: human stomach cancer cells (BGC823); test: Tumor inhibition in nude mice bearing human stomach cancer cells (BGC823); conditions: Example 2; intratumoral 100 μl/mouse every 3 days x3; next day; avg tumor volume 85 mm^3
Method: as §3, §4, §5
In this research experiment, successfully modeled nude mice bearing human stomach cancer cells (BGC823) (with an average tumor volume of 85 mm^3) were randomly divided into a negative control group and 4 study groups (groups A, B, C, and D).

[8] = tested on: pancreatic cancer cells PANC-1; test: Tumor inhibition in nude mice bearing pancreatic cancer cells PANC-1; format: in vivo; conditions: for Tumor inhibition rate of intraperitoneal injection / Tumor inhibition rate of intratumoral injection: Table 3, avg tumor volume 105 mm^3, 100 μl/mouse every 3 days x3, next day after last dose; for Tumor inhibition rate: Table 4, avg tumor volume 136 mm^3, intratumoral every 3 days x3, ≤150 μl, next day
Method: as §2
After anatomy, the tumor weight was measured and the tumor inhibition rate was calculated.

[9] = tested on: human prostate cancer cells (LNCaP/AR); test: Tumor inhibition in nude mice bearing human prostate cancer cells (LNCaP/AR); conditions: Example 2; intratumoral 100 μl/mouse every 3 days x3; next day; avg tumor volume 91 mm^3
Method: as §3, §4, §6
In this research experiment, successfully modeled nude mice bearing human prostate cancer cells (LNCaP/AR) (with an average tumor volume of 91 mm^3) were randomly divided into a negative control group and 4 study groups (groups A, B, C, and D).
as §7, §8
In this series of experiments, successfully modeled nude mice bearing human cancer cells were randomly divided into 1 negative control group and 3 study groups. […] Each group was injected intratumorally, once every 3 days, for a total of 3 times, each time with 150 μl/mouse. On the fifth day after the administration was ended, the animals were euthanized, the tumor weight was measured after anatomy, and the tumor inhibition rate was calculated from the respective negative control group.

[10] = tested on: human thyroid cancer cells (SW579); test: Tumor inhibition in nude mice bearing human thyroid cancer cells (SW579); conditions: Example 2; intratumoral 100 μl/mouse every 3 days x3; next day; avg tumor volume 103 mm^3
Method: as §3, §4, §6, §7, §8, §9

[11] = tested on: human breast cancer cells (MDA-MB231); test: Tumor inhibition in nude mice bearing human breast cancer cells (MDA-MB231); conditions: Example 2; intratumoral 100 μl/mouse every 3 days x3; next day; avg tumor volume 71 mm^3
Method: as §3, §4, §6
In this research experiment, successfully modeled nude mice bearing human breast cancer cells (MDA-MB231) (with an average tumor volume of 71 mm^3) were randomly divided into a negative control group and 4 study groups (groups A, B, C, and D).
Each group was injected intratumorally, once every 3 days, for a total of 3 times, each time with 150 μl/mouse. On the next day after the administration was ended, the animals were euthanized, the tumor weight was measured after anatomy, and the tumor inhibition rate was calculated from the respective negative control group.
Each group was injected intratumorally, once every 3 days, for a total of 3 times, each time with 100 μl/mouse. On the next day after the administration was ended, the animals were euthanized, the tumor weight was measured after anatomy, and the tumor inhibition rate was calculated from the respective negative control group.

[12] = tested on: human head and neck cancer cells (Fμda); test: Tumor inhibition in nude mice bearing human head and neck cancer cells (Fμda); format: in vivo; conditions: Example 2; intratumoral 100 μl/mouse every 3 days x3; next day; avg tumor volume 109 mm^3
From the text: as §1

[13] = Saturated concentration of 5-fluorouracil; format: physicochemical; conditions: aqueous solution
[14] = tested on: HepG2; test: Intratumoral tissue destruction, histological observation of HepG2 tumors; conditions: Table 7; intratumoral injection, once, ≤130 μl/mouse; next day; scale 0 = blank control, 5 = 5% acetic acid
Method: The negative control group was given normal saline, and the compositions and injection methods of the 5 study drugs are shown in the table below. […] Each group was administered once, with an injection dose of ≤130 μl/mouse. On the next day after the administration was ended, the animals were euthanized, and the tumor was dissected for histological observation.
The negative control groups were given normal saline, and the compositions and injection methods of the 5 study drugs are shown in the table below. […] Each group was administered once, with an injection dose of ≤130 μl/mouse. On the next day after the administration was ended, the animals were euthanized, and the tumor was dissected for histological observation.

[15] = tested on: pancreatic cancer cells PANC-1; conditions: once, 150 μl, next day, vs blank group
Method: Both groups A and B were administered the drugs once, with 150 μl each time. The next day after the administration of drug was ended, the 3 groups of animals were euthanized, and the tumors were dissected for histological observation.

[16] = tested on: hyperthyroidism; test: Hyperthyroidism model in rats (levothyroxine); conditions: first experiment, 25th day after administration, RIA
Method: Taking hyperthyroidism as a model, the model was built with levothyroxine (intraperitoneal injection, with a dose of 50 μg/100 g body weight, for consecutive 10 days). […] Administration was started on the day of grouping. The negative control was a normal saline spray, and the positive control was methimazole. […] Both the negative control group and the study group were injected once every 1 days in the swollen area, with 150 μl/mouse each time, for a total of 8 times.
The observed, measured and analyzed items in the experiment included serological examination and thyroid pathological examination on the day of administration and the 16th day after the administration, in addition to the regular food intake, body weight, and general state. The serological examination employed radioimmunoassay (RIA) to determine concentrations of serum T3, T4 and thyroid-stimulating hormone (TSH). The pathological examination observed thyroid morphology, follicular morphology, epithelial cell morphology, and interlobular fibrous tissue morphology.

[17] = Table 13, avg tumor volume 307 mm^3, intratumoral 150 μl/mouse every 3 days x3, 5th day
[18] = Example 2, intratumoral 100 μl/mouse every 3 days x3, next day, avg tumor volume 81 mm^3
[19] = Table 16, avg tumor volume 169 mm^3, intratumoral every 3 days x3, ≤150 μl/mouse, 5th day
[20] = Table 15, avg tumor volume 316 mm^3, intratumoral 150 μl/mouse every 3 days x3, 5th day
[21] = Table 12, avg tumor volume 317 mm^3, intratumoral 150 μl/mouse every 3 days x3, 5th day
[22] = Table 14, avg tumor volume 325 mm^3, intratumoral 150 μl/mouse every 3 days x3, 5th day
[23] = Table 6, avg tumor volume 153 mm^3, ≤120 μl/mouse every 3 days x3
[24] = Table 8, avg tumor volume 175 mm^3, ≤150 μl/mouse every 3 days x3
[25] = Table 11, avg tumor volume 164 mm^3, intratumoral every 3 days x3, ≤150 μl, fifth day after last dose
[26] = Table 17, avg tumor volume 317 mm^3, intratumoral 150 μl/mouse every 3 days x3, fifth day

Structure (SMILES): O=C([O-])[O-].[Na+].[Na+] [14% sodium carbonate, sodium carbonate]
- Drug pH ([1]; Table 13): 10.8
- Tumor inhibition rate [2, 17]: 35%
- Tumor weight (g) (x ± s) [2, 17]: 1.47 ± 0.24 g

Structure (SMILES): Cl.N[C@@H](CCC(=O)O)C(=O)O [3% glutamic hydrochloride, L-glutamic hydrochloride]
- Tumor inhibition rate [3, 18]: 62%
- Tumor inhibition rate [3, 19]: (70%)
- Tumor inhibition rate [4]: 57%
- Tumor inhibition rate [5]: 68%
- Tumor inhibition rate [6]: 61%
- Tumor inhibition rate [7]: 57%
- Tumor inhibition rate of intraperitoneal injection [8]: 68%
- Tumor inhibition rate of intratumoral injection [8]: 5%
- Tumor inhibition rate ([8]; hydrochloride): 69%
- Tumor inhibition rate [9]: 59%
- Tumor inhibition rate [10]: 63%
- Tumor inhibition rate [11]: 61%
- Tumor inhibition rate [12]: 58%

Structure (SMILES): C[C@H](N)C(=O)N[C@@H](CCC(N)=O)C(=O)O [10% ALA-GLN, Alanyl-glutamine dipeptide] (H-Ala-Gln-OH)
- Tumor inhibition rate [3, 18]: 56%
- Tumor inhibition rate [4]: 52%
- Tumor inhibition rate [5]: 63%
- Tumor inhibition rate [6]: 62%
- Tumor inhibition rate [7]: 51%
- Tumor inhibition rate of intraperitoneal injection [8]: 53%
- Tumor inhibition rate of intratumoral injection [8]: 2%
- Tumor inhibition rate [9]: 61%
- Tumor inhibition rate [10]: 59%
- Tumor inhibition rate [11]: 57%
- Tumor inhibition rate [12]: 51%

Structure (SMILES): O=c1[nH]cc(F)c(=O)[nH]1 [5-fluorouracil]
- saturated concentration (Canti) [13]: about 1.5%

Structure (SMILES): O=C([O-])O.[Na+] [5% sodium bicarbonate, sodium bicarbonate]
- Drug pH ([1]; Table 13): 6.9
- Tumor inhibition rate [2, 17]: 21%
- Tumor weight (g) (x ± s) [2, 17]: 1.79 ± 0.24 g

Structure (SMILES): O=C([O-])O.[Na+] [4% sodium bicarbonate, sodium bicarbonate]
- Drug pH ([1]; Table 15): 6.9
- Tumor inhibition rate [2, 20]: 23%
- Tumor weight (x ± s) [2, 20]: 1.68 ± 0.27 g

Structure (SMILES): N=C(N)NCCC[C@H](N)C(=O)O [15% arginine, L-arginine]
- Drug pH ([1]; Table 13): 11.0
- Intratumoral injection Tumor inhibition rate [2]: 28%
- Intratumoral injection Tumor weight [2]: 0.92 ± 0.26 g
- Tumor inhibition rate [2, 17]: 23%
- Tumor weight (g) (x ± s) [2, 17]: 1.74 ± 0.28 g

Structure (SMILES): CC(=O)O [15% acetic acid, acetic acid]
- Drug pH ([1]; Table 15): 2.5
- Tumor inhibition rate [2, 20]: 68%
- Tumor weight (x ± s) [2, 20]: 0.70 ± 0.18 g

Structure (SMILES): [Na+].[OH-] [1% NaOH, sodium hydroxide]
- Drug pH ([1]; Table 14): 11.8
- Intratumoral injection Tumor inhibition rate [2]: 41%
- Intratumoral injection Tumor weight [2]: 0.76 ± 0.24 g
- Tumor inhibition rate [2, 21]: 41%
- Tumor weight (x ± s) [2, 21]: 1.39 g
- Tumor inhibition rate [2, 22]: 42%
- Tumor weight (x ± s) [2, 22]: 1.41 ± 0.23 g

Structure (SMILES): N[C@@H](CCC(=O)N[C@@H](CS)C(=O)NCC(=O)O)C(=O)O [10% glutathione, Reduced glutathione]
- Tumor inhibition rate [3, 18]: 61%
- Intratumoral injection Tumor inhibition rate [3, 23]: 58%
- Intratumoral injection Tumor weight [3, 23]: 0.97 ± 0.24 g
- Tumor inhibition rate of intraperitoneal injection [3, 23]: 3%
- Intratumoral injection Tumor inhibition rate [3, 24]: 59%
- Intratumoral injection Tumor weight [3, 24]: 1.04 ± 0.23 g
- Tumor inhibition rate of intraperitoneal injection [3, 24]: 1%
- Tumor inhibition rate [3, 19]: (62%)
- Tumor inhibition rate [4]: 59%
- Intratumoral tissue destruction [14]: 1
- Tumor inhibition rate [5]: 61%
- Tumor inhibition rate [6]: 67%
- Tumor inhibition rate [7]: 59%
- Tumor inhibition rate of intraperitoneal injection [8]: 51%
- Tumor inhibition rate of intratumoral injection [8]: 3%
- Tumor inhibition rate [8]: 57%
- Tumor inhibition rate [9]: 65%
- Tumor inhibition rate [10]: 61%
- Tumor inhibition rate [11]: 64%
- Tumor inhibition rate [12]: 53%
- histological observation of the tumor ([15]; intraperitoneal injection): no obvious difference between group A and the blank group
- histological observation of the tumor ([15]; intratumoral injection): obvious intratumoral tissue destruction

Structure (SMILES): N=C(N)NCCC[C@H](N)C(=O)O [20% arginine, L-arginine]
- Tumor inhibition rate [3, 18]: 63%
- Intratumoral injection Tumor inhibition rate [3, 24]: 61%
- Intratumoral injection Tumor weight [3, 24]: 0.99 ± 0.21 g
- Tumor inhibition rate of intraperitoneal injection [3, 24]: 5%
- Tumor inhibition rate [3, 25]: (60%)
- Tumor inhibition rate [3, 19]: (61%)**
- Tumor inhibition rate [4]: 53%
- Tumor inhibition rate [5]: 63%
- Tumor inhibition rate [6]: 56%
- Drug pH ([1]; Table 14): 10.8
- Tumor inhibition rate [7]: 52%
- Tumor inhibition rate of intraperitoneal injection [8]: 56%
- Tumor inhibition rate of intratumoral injection [8]: 5%
- Tumor inhibition rate [8]: 61%
- Tumor inhibition rate [9]: 55%
- Tumor inhibition rate [10]: 62%
- Tumor inhibition rate [11]: 55%
- Intratumoral injection Tumor inhibition rate [2]: 33%
- Intratumoral injection Tumor weight [2]: 0.86 ± 0.23 g
- Tumor inhibition rate [2, 21]: 27%
- Tumor weight (x ± s) [2, 21]: 1.72 g
- Tumor inhibition rate [2, 22]: 28%
- Tumor weight (x ± s) [2, 22]: 1.75 ± 0.29 g
- Tumor inhibition rate [2, 26]: 34%
- Tumor weight [2, 26]: 1.03 ± 0.29 g
- Tumor inhibition rate [12]: 56%

Structure (SMILES): O=C([O-])[O-].[Na+].[Na+] [7% sodium carbonate, sodium carbonate]
- Drug pH ([1]; Table 13): 10.8
- Tumor inhibition rate [2, 17]: 20%
- Tumor weight (g) (x ± s) [2, 17]: 1.81 ± 0.21 g

Structure (SMILES): Cn1cc[nH]c1=S [Thiamazole, methimazole]
- serum T3 ([16]; negative control 1.9±0.1, blank 0.8±0.1): 1.1±0.1
- serum T4 ([16]; negative control 171.2±9.3, blank 39.6±3.1): 66.3±3.6

Structure (SMILES): CC(=O)O [5% acetic acid, acetic acid, reference compound]
- Tumor inhibition rate [3, 25]: (71%)
- Intratumoral tissue destruction [14]: 5

Structure (SMILES): O=C([O-])O.[Na+] [10% sodium bicarbonate, sodium bicarbonate]
- Drug pH ([1]; Table 13): 6.8
- Tumor inhibition rate [2, 17]: 30%
- Tumor weight (g) (x ± s) [2, 17]: 1.58 ± 0.22 g

Structure (SMILES): O=C([O-])[O-].[Na+].[Na+] [2.8% sodium carbonate, sodium carbonate]
- Drug pH ([1]; Table 13): 10.9
- Tumor inhibition rate [2, 17]: 7%
- Tumor weight (g) (x ± s) [2, 17]: 2.10 ± 0.27 g

Structure (SMILES): O=C([O-])O.[Na+] [2% sodium bicarbonate, sodium bicarbonate]
- Drug pH ([1]; Table 13): 6.9
- Tumor inhibition rate [2, 17]: 7%
- Tumor weight (g) (x ± s) [2, 17]: 2.10 ± 0.25 g
